Results reported in patent US9371307B2, “Serine protease inhibitors” (THE JOHNS HOPKINS UNIVERSITY, priority 2011, dated 2016).
Read-outs that look alike come from different tables or passages of the source.

Legend:
Assay type in all cases: biochemical
human chymase = target: T1, human chymase (Homo sapiens, UniProt P23946); assay: Inhibition of chymase (Ki; Lineweaver-Burk double reciprocal plots)
T1 construct: In its active form within the secretory granules of mast cells, human chymase contains 226 amino acid residues
T1 sequence (P23946 22-247): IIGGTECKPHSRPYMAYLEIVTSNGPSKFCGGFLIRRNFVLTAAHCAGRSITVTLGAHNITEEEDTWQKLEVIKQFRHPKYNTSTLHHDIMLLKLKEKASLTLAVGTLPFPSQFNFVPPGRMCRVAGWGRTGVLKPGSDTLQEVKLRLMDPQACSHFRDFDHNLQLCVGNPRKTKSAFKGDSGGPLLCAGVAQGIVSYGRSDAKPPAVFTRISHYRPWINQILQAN

DPPIV = DPPIV (Homo sapiens, UniProt P27487); assay: Selectivity of chymase inhibitors against DPPIV; conditions: ratio of Ki enzyme/Ki chymase
DPPIV, sequence (P27487 whole entry, species assumed): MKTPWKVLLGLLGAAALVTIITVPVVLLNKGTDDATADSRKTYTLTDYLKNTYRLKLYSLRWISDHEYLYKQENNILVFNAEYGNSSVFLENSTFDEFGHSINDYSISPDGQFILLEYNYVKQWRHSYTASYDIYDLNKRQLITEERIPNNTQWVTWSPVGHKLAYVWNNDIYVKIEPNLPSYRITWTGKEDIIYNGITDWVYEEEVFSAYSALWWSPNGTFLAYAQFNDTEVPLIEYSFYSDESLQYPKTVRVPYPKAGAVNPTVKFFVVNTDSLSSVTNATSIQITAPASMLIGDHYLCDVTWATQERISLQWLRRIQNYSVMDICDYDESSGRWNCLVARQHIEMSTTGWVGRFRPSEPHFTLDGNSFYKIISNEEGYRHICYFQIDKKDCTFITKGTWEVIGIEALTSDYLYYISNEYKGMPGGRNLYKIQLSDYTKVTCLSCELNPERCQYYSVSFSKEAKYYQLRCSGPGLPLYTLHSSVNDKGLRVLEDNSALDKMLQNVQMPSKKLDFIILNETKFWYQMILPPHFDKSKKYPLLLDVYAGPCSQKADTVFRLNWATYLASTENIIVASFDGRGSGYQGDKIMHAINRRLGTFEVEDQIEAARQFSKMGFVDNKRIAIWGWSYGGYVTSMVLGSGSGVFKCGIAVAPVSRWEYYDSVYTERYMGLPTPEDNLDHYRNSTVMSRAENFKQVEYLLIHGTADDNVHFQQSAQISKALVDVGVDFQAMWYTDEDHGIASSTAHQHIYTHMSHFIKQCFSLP

Thrombin = Thrombin (Homo sapiens, UniProt P00734); assay: Selectivity of chymase inhibitors against thrombin; conditions: ratio of Ki enzyme/Ki chymase
Experimental: (§1) As provided in Table 1, hereinabove in Example 2, selectivity was tested by measuring the inhibitory activity of ef-rs-03-075 and analogs against other serine proteases, including thrombin, trypsin, and tryrptase.

Tryptase = Tryptase (Homo sapiens, UniProt Q15661); assay: Selectivity of chymase inhibitors against tryptase; conditions: ratio of Ki enzyme/Ki chymase
Tryptase, sequence (Q15661 31-275): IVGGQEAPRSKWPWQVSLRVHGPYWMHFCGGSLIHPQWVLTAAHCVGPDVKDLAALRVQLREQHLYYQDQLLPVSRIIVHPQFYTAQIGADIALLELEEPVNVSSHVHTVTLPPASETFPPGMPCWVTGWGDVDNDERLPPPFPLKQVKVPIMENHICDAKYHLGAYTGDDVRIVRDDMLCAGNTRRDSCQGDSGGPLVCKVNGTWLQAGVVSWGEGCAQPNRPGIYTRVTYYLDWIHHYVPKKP
Experimental: as §1

Trypsin = assay: Selectivity of chymase inhibitors against trypsin; conditions: ratio of Ki enzyme/Ki chymase
Experimental: as §1

SMILES | Ki (human chymase; read-out: Chymase Ki) [µM] | Selectivity of chymase inhibitors: DPPIV (DPPIV) | Selectivity of chymase inhibitors: Thrombin (Thrombin) | Selectivity of chymase inhibitors: Tryptase (Tryptase) | inhibitory mechanism (human chymase; double reciprocal plot of substrate concentration vs. reaction velocity, various inhibitor concentrations (FIG. 4)) | Ki (human chymase; value given in the description text as 'high affinity', read-out: affinity) [µM] | Selectivity of chymase inhibitors: Trypsin (Trypsin)
O=S(=O)(/C=C/c1cccc(Br)c1)N(Cc1ccccc1)c1cccc(Cl)c1 [ef-rs-03-015-P2] | 1.58 ± 0.13 | >100 | >200 | >260 |  |  | 
O=S(=O)(/C=C/c1cccc(Cl)c1)N(Cc1ccccc1)c1cccc(Cl)c1 [ef-rs-03-019-P4] | 1.32 ± 0.28 | >100 | >200 | >275 |  |  | 
O=S(=O)(/C=C/c1cccc(Cl)c1)N(Cc1ccsc1)c1cccc(Cl)c1 [ef-rs-03-038-P1] | 1.57 ± 0.39 | 34 | >60 | >240 |  |  | 
O=S(=O)(/C=C/c1cccc(Br)c1)N(Cc1ccsc1)c1cccc(Cl)c1 [ef-rs-03-039-P1] | 1.34 ± 0.39 | 17 | >60 | >310 |  |  | 
O=S(=O)(/C=C/c1cccc(Cl)c1)N(Cc1cccc(Cl)c1)c1cccc(Cl)c1 [ef-rs-03-075, (E)-N-(3-chlorobenzyl)-N,2-bis(3-chlorophenyl)ethenesulfonamide] | 0.959 ± 0.042 | 37 | >320 | >410 | competitive inhibition | 0.544 | >110
Cc1cccc(CN(c2cccc(Cl)c2)S(=O)(=O)/C=C/c2cccc(Cl)c2)c1 [ef-rs-08-049] | 1.11 ± 0.22 | 170 | 13 | >350 |  |  | 
O=S(=O)(/C=C/c1cccc(Cl)c1)N(Cc1cccc(Br)c1)c1cccc(Cl)c1 [ef-rs-08-050] | 1.22 ± 0.19 | 40 | 45 | >320 |  |  | 
O=S(=O)(/C=C/c1cccc(Cl)c1)N(Cc1ccc(Cl)c(Cl)c1)c1cccc(Cl)c1 [ef-rs-08-051] | 0.903 ± 0.15 | 16 | 70 | >110 |  |  | 
O=S(=O)(/C=C/c1cccc(Cl)c1)N(Cc1cccc(Cl)c1)c1cccc(OCc2cccc(Cl)c2)c1 [ef-rs-08-052] | 0.978 ± 0.087 | 10 | >75 | >100 |  |  | 
O=S(=O)(/C=C/c1cccc(Cl)c1)N(Cc1ccc(Cl)cc1)c1cccc(Cl)c1 [ef-rs-08-056] | 1.26 ± 0.2 | 80 | 20 | >310 |  |  | 
O=S(=O)(/C=C/c1cccc(Cl)c1)N(Cc1cccc(F)c1)c1cccc(Cl)c1 [ef-rs-08-057] | 1.19 ± 0.12 | 70 | >50 | >80 |  |  | 
